# Data published in US9040717B2, “Pyrazole-amide compounds and pharmaceutical use thereof” (JAPAN TOBACCO INC., priority 2013, dated 2015).
# Experiments:
# [1] = Metabolic stability test in rat liver microsome; format: in vitro ADME
# [2] = biological target: hERG current in hERG-transfected HEK293 cells (Homo sapiens (Human), UniProt Q12809); test: hERG whole cell patch clamp test; format: cell-based; settings: for IC50: whole cell patch clamp
# Description: Using human ether-a-go-go related gene (hERG)-transfected HEK293 cells (Cytomyx Limited), an influence on hERG current was examined according to the whole cell patch clamp technique. The hERG-transfected HEK293 cells were passaged using a CO2 incubator (BNA-111, TABAI ESPEC CORP.) under the set conditions of 37° C., 5% CO2, saturated humidity. Culture containers used were Collagen Type I Coated 75 cm^2 flask (4123-010, AGC TECHNO GLASS CO., Ltd.) and Collagen Type I Coated 35 mm culture dish (4000-010, AGC TECHNO GLASS CO., Ltd.). The culture medium used was E-MEM (Eagle Minimum Essential Medium (Earle's Salts, Nikken biomedical laboratory) added with 10% FCS (Fetal calf serum, BioWest, L.L.C.) and 1% MEM Non-Essential Amino Acids Solution (NEAA, Invitrogen Corporation). Geneticin for the selection of hERG gene expressing cells was added thereto to a concentration of 400 μg/mL. As the cells for the measurement, 3×10^4 hERG-transfected HEK293 cells were plated on a 35 mm culture dish 4 to 7 days before measurement of the hERG current. The culture dish produced for the measurement contained the above-mentioned culture medium without geneticin (Invitrogen Corporation).
# The highest evaluation concentration of each compound was determined from the highest concentration at which precipitation was not found in the standard extracellular fluid (NaCl: 140 mmol/L, KCl: 2.5 mmol/L, MgCl2:2 mmol/L, CaCl2: 2 mmol/L, HEPES: 10 mmol/L, glucose: 10 mmol/L (adjusted to pH 7.4 with Tris-base)). As the application method, each solution to be applied was ejected from a Y-tube having a tip diameter of about 0.25 mm, which was adjacent (about 2 mm) to the cells, and applied to the cells. The ejection rate was about 0.4 mL/min.
# The experiment was performed at room temperature under a phase contrast microscope. The 35 mm culture dish plated with the cells was set on a measurement apparatus, and the standard extracellular fluid was continuously applied to the cells from the Y-tube. A glass electrode for the measurement was filled with an intracellular fluid (Potassium Gluconate: 130 mmol/L, KCl: 20 mmol/L, MgCl2: 1 mmol/L, ATP-Mg: 5 mmol/L, EGTA: 3.5 mmol/L, HEPES: 10 mmol/L (adjusted to pH 7.2 with Tris-base)). A conventional whole cell patch clamp method was applied to the cells, and the maintenance electric potential was set to −80 mV. Under a fixed electric potential, the whole cell current was amplified by an amplifier for patch clamp (AXOPATCH-200B, Axon Instruments, Inc.), and the data was loaded into a computer (IMC-P642400, Intermedical Co., Ltd.) using a data acquisition analysis software (pCLAMP 9.2, Axon Instruments, Inc.).
# The measurement of the hERG current was performed in the following two steps. In both cases, the hERG current was initiated by giving a command potential (maintenance electric potential −80 mV, prepulse +20 mV, 1.5 sec, test-pulse −50 mV, 1.5 sec).
# Step (1): The above-mentioned command potential was given at 0.1 Hz for 2 min.
# Step (2): The above-mentioned command potential was subjected to P/3 subtraction of pCLAMP 9.2 to remove leak current. This was repeated three times and an average thereof was taken as hERG current.
# Subsequent to step (1), Step (2) was performed (about 3 min), and the maximum tail current obtained by applying a test-pulse to the hERG current obtained by the method of step (2) was taken as hERG current value. Hereafter, the operations of (1) and (2) were alternately repeated until completion of the experiment and the hERG current value was measured.
# Stable hERG current value was recorded three times (about 10 min), and the standard extracellular fluid was instantaneously exchanged with each application fluid. The hERG current value was measured three times (about 10 min) in the same manner during perfusion of the application fluid, and the current value obtained by the 3rd measurement was taken as hERG current value after perfusion of the application fluid. […]
# [3] = Metabolic stability test in human liver microsome; format: in vitro ADME; settings: 5 μM, 37° C.
# Description: Human liver microsome (manufactured by Xenotech, H0620, final concentration (after dilution), 0.2 mg protein/mL) was suspended in 100 mM potassium phosphate buffer (pH 7.4, containing β-nicotinamide adenine dinucleotide phosphate: 1.3 mM, D-glucose-6-phosphate: 3.3 mM, magnesium chloride: 3.3 mM, glucose-6-phosphate dehydrogenase: 0.45 U/mL), and further mixed with a test compound dissolved in MeCN/DMSO (95/5) (final concentration 5 μM). The mixture was incubated at 37° C. for 10 min and 60 min, acetonitrile containing formic acid (final concentration 0.1%) was added, and the mixture was centrifuged. The test compound (unmodified) in the supernatant was measured by high performance liquid chromatography/mass spectrometry (LC/MS) (manufactured by Waters, LC: Acquity UPLC, MS:SQ Detector or TQ Detector). The residual ratio (%) was calculated from the obtained measurement value.
# [4] = test system: Zucker Diabetic Fatty rats; test: Effect of repeated administration on HbA1c in ZDF rats; format: in vivo, rat; settings: 1 mg/kg oral once daily, day 14 of administration, mean ± S.D. (n = 10), *p < 0.05 vs. vehicle group
# Description: Zucker Diabetic Fatty rats (male, 7-week-old, CHARLES RIVER LABORATORIES JAPAN INC.), an animal model for type 2 diabetes, given a purified diet (5.9% fat diet, Oriental Yeast Co., Ltd.) were allocated to the vehicle group and the test compound groups so that no bias occurred in the plasma glucose and insulin levels, HbAlc levels and body weights. Repeated oral doses of the test compound (1 mg/kg/5 mL) were administered to the rats once daily at 3 hr before the dark period. A 0.5% aqueous methylcellulose solution was orally administered in the same manner to the rats of the vehicle group. On day 14 of administration, blood samples were collected from the tail vein and HbAlc level (%) was measured. Statistical analysis was performed by Dunnett's test. Values of p<0.05 were cosidered statistically significant.
# hERG current in hERG-transfected HEK293 cells, sequence (Q12809 whole entry): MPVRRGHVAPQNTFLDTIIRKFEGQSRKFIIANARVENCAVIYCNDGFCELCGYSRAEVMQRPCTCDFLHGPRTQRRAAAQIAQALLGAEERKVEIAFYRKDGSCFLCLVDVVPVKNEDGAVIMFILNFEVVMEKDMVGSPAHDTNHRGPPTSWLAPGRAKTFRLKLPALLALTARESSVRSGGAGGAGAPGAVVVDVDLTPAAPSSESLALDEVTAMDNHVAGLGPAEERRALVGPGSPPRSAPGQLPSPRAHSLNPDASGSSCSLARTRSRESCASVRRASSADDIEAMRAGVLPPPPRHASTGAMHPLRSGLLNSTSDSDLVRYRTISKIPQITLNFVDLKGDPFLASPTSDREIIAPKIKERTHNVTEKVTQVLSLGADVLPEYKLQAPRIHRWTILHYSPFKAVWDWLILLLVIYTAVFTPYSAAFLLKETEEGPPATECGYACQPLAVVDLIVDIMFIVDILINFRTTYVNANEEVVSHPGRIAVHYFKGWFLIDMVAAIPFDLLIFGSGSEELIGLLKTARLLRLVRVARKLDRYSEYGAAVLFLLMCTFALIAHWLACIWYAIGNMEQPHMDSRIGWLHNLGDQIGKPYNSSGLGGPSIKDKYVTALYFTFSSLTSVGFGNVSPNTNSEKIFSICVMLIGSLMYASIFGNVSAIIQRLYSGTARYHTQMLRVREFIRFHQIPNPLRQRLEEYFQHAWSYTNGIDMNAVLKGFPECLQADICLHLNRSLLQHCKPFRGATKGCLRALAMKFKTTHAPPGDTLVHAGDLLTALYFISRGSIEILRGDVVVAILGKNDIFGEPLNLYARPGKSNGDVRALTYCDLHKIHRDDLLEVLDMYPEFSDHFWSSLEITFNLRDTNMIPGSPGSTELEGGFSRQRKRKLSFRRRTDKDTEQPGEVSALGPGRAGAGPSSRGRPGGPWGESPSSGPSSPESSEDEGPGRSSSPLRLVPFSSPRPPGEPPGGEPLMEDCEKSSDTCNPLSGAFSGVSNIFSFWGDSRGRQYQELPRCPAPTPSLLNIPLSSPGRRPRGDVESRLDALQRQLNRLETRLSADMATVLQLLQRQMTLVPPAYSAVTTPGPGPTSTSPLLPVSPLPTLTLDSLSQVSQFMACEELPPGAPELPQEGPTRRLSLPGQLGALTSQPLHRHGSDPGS
SMILES,Stability in liver microsome (residual ratio %) ([1]; 10 min) [%],Stability in liver microsome (residual ratio %) ([1]; 60 min) [%],hERG current Inhibition rate (%) ([2]; 1 μmol/L),hERG current Inhibition rate (%) ([2]; 10 μmol/L),Stability in liver microsome (residual ratio %) ([3]; 10 min) [%],Stability in liver microsome (residual ratio %) ([3]; 60 min) [%],HbA1c (%) [4],hERG current Inhibition rate (%) ([2]; 30 μmol/L),IC50 [2] [µM]
"Cn1cc(-c2cc(OCC(C)(C)O)cc3c2-c2ccccc2[C@]3(O)C(F)(F)F)cn1 [Compound (B), (9R)-2-(2-Hydroxy-2-methylpropoxy)-4-(1-methyl-1H-pyrazol-4-yl)-9-(trifluoromethyl)-9H-fluoren-9-ol]",101.1,92.1,17.4,72.9,98.0,88.2,–,–,–
"CC(C)(O)CCCOc1cc(-c2cnn(C(C)(C)C(N)=O)c2)c2c(c1)[C@@](O)(C(F)(F)F)c1ccccc1-2 [Compound (3), 2-{4-[(9R)-9-hydroxy-2-(4-hydroxy-4-methylpentyloxy)-9-(trifluoromethyl)-9H-fluoren-4-yl]-1H-pyrazol-1-yl}-2-methylpropanamide]",102.7,95.8,–,–,98.4,85.9,3.4 ± 0.1* %,27.3,> 30
"NC(=O)Cn1cc(-c2cc(OCCC34CC5CC(CC(O)(C5)C3)C4)cc3c2-c2ccccc2[C@]3(O)C(F)(F)F)cn1 [Compound (A), 2-(4-{(9R)-9-Hydroxy-2-[2-(3-hydroxyadamantan-1-yl)ethoxy]-9-(trifluoromethyl)-9H-fluoren-4-yl}-1H-pyrazol-1-yl)acetamide]",24.8,0.0,–,11.8,34.8,0.0,–,–,–
"CC(C)(O)CCOc1cc(-c2cnn(C(C)(C)C(N)=O)c2)c2c(c1)[C@@](O)(C(F)(F)F)c1ccccc1-2 [Compound (2), 2-{4-[(9R)-9-hydroxy-2-(3-hydroxy-3-methylbutyloxy)-9-(trifluoromethyl)-9H-fluoren-4-yl]-1H-pyrazol-1-yl}-2-methylpropanamide]",98.8,100.0,–,–,98.8,96.5,3.2 ± 0.1* %,24.4,> 30
